ChEMBL document CHEMBL5131439, “Triproamide and Pemukainalides, Cyclic Depsipeptides from the Marine Cyanobacterium Symploca hydnoides” (J Nat Prod, 2022)
Starred links: 1 amine or outer side, 2 acyl side, 3 side chain; linkers in the order of their positions; H or OH if unused. Non-standard residues stand in square brackets, D forms with d. Residues, ends and D or L forms follow the SMILES beside them. X1 = C[C@H](Cc1ccccc1)[C@H](N[*:1])C(=O)[*:2]; X2 = CC(C)[C@@H](N[*:1])[C@@H](C)C(=O)[*:2]; dNMeV = CN[C@@H](C(=O)O)C(C)C; dHiv = CC(C)[C@@H](O)C(=O)O; Lac = C[C@H](O)C(=O)O

Each molecule was assayed on MOLT-4 (assay: Cytotoxicity against human MOLT-4 cells assessed as reduction in cell viability incubated for 24 hrs by MTT assay). Details: MOLT-4, 24 h.
Format: functional, cell-based

SMILES | IC50 [µM]
CC(C)[C@@H]1OC(=O)[C@H](C)[C@@H](C(C)C)NC(=O)[C@@H]2CCCN2C(=O)[C@H]([C@H](C)Cc2ccccc2)NC(=O)[C@@H]2CCCN2C(=O)[C@@H](C(C)C)OC(=O)[C@@H]2CCCN2C(=O)[C@@H](C(C)C)N(C)C1=O | 23
C#CCCC[C@@H]1OC(=O)[C@H](Cc2ccccc2)NC(=O)[C@H](C(C)C)NC(=O)[C@@H]2CCCN2C(=O)[C@@H]2CCCN2C(=O)[C@H](C)OC(=O)[C@@H](C(C)C)N(C)C(=O)[C@H](C(C)C)NC(=O)C1(C)C | 5.9
CC(C)[C@H]1NC(=O)[C@@H]2CCCN2C(=O)[C@H]([C@H](C)Cc2ccccc2)NC(=O)[C@@H]2CCCN2C(=O)[C@@H](C(C)C)N(C)C(=O)[C@@H](C(C)C)OC(=O)[C@@H]2CCCN2C(=O)[C@H](C)OC(=O)[C@@H]1C (cyclo([Lac]P[dHiv][dNMeV]P[X1]P[X2])) | 2.5
C=CCCC[C@@H]1OC(=O)[C@H](Cc2ccccc2)NC(=O)[C@H](C(C)C)NC(=O)[C@@H]2CCCN2C(=O)[C@@H]2CCCN2C(=O)[C@H](C)OC(=O)[C@@H](C(C)C)N(C)C(=O)[C@H](C(C)C)NC(=O)C1(C)C | 5.6
CCCCC[C@@H]1OC(=O)[C@H](Cc2ccccc2)NC(=O)[C@H](C(C)C)NC(=O)[C@@H]2CCCN2C(=O)[C@@H]2CCCN2C(=O)[C@H](C)OC(=O)[C@@H](C(C)C)N(C)C(=O)[C@H](C(C)C)NC(=O)C1(C)C | 37
